Measurements published in ChEMBL document CHEMBL4507286 (2021).

What was measured:
[1] = molecular target: Calcium/calmodulin-dependent protein kinase kinase 2 (Homo sapiens) (UniProt Q96RR4)
[2] = tested on: Fibroblast growth factor receptor 3 (Homo sapiens), P22607 [G697C]
[3] = molecular target: Serine/threonine-protein kinase LATS1 (Homo sapiens) (UniProt O95835)
[4] = molecular target: Tyrosine-protein kinase JAK1 (Homo sapiens) (UniProt P23458)
[5] = molecular target: Cyclin-dependent kinase-like 2 (Homo sapiens) (UniProt Q92772)
[6] = molecular target: Atypical kinase COQ8A, mitochondrial (Homo sapiens) (UniProt Q8NI60)
[7] = molecular target: Serine/threonine-protein kinase ICK (Homo sapiens) (UniProt Q9UPZ9)
Chain of Serine/threonine-protein kinase ICK (Homo sapiens) (Q9UPZ9 whole entry): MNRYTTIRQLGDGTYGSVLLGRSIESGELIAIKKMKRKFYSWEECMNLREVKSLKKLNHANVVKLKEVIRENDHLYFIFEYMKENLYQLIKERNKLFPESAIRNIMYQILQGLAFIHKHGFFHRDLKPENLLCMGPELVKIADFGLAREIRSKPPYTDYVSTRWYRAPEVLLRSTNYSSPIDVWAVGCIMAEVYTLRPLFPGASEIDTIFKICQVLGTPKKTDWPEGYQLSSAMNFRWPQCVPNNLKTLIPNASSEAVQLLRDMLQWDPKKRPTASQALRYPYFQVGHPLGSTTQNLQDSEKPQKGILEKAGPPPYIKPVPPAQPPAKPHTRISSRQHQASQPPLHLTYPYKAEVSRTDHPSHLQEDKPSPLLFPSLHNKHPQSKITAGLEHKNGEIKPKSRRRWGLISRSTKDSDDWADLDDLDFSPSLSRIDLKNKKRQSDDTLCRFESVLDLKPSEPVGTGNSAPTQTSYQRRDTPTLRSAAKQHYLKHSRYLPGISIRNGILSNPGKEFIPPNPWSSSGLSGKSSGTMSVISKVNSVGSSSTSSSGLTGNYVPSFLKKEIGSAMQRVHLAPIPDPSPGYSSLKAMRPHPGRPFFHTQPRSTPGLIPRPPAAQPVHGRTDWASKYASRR

[8] = molecular target: Serine/threonine-protein kinase WNK4 (Homo sapiens) (UniProt Q96J92)
[9] = molecular target: Mitogen-activated protein kinase kinase kinase 13 (Homo sapiens) (UniProt O43283)
[10] = molecular target: Dual specificity protein kinase TTK (Homo sapiens) (UniProt P33981)
[11] = molecular target: Dual serine/threonine and tyrosine protein kinase (Homo sapiens) (UniProt Q6XUX3)
[12] = molecular target: Calcium/calmodulin-dependent protein kinase type II subunit alpha (Homo sapiens) (UniProt Q9UQM7)
[13] = tested on: Phosphatidylinositol 4,5-bisphosphate 3-kinase catalytic subunit alpha isoform (Homo sapiens), P42336 [E545A]
[14] = tested on: Tyrosine-protein kinase ABL1 (Homo sapiens), P00519 [T315I]
[15] = molecular target: Protein kinase C eta type (Homo sapiens) (UniProt P24723)
[16] = tested on: Mast/stem cell growth factor receptor Kit (Homo sapiens), P10721 [V559D,V654A]
Chain of Mast/stem cell growth factor receptor Kit (Homo sapiens), P10721 [V559D,V654A] (P10721 whole entry V559D/V654A): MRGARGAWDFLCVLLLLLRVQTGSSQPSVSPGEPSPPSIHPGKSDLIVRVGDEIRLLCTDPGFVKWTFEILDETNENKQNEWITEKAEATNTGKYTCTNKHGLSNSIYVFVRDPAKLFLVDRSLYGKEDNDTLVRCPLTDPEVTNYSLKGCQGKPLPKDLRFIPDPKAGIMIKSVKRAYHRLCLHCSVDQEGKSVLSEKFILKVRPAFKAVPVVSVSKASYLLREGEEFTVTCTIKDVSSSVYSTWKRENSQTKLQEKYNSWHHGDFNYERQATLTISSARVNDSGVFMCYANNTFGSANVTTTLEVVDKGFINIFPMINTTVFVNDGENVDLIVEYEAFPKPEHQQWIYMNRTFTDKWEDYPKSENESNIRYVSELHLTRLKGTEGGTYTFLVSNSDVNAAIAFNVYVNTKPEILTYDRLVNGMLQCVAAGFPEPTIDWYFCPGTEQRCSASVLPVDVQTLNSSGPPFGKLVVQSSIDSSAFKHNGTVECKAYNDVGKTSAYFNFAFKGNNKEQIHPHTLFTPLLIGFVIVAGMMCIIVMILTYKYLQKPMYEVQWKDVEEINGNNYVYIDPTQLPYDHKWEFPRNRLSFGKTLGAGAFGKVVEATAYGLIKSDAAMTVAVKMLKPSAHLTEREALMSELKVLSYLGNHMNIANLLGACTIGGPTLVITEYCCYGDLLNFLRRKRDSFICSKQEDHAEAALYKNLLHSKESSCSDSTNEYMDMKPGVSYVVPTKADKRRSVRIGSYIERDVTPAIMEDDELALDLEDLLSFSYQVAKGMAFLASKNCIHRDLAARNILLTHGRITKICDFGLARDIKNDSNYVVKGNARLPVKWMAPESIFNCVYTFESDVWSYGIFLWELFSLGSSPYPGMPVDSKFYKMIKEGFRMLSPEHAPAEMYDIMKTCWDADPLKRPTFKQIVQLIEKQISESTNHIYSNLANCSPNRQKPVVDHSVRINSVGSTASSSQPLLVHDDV

[17] = molecular target: Cyclin-dependent kinase 2 homolog (Plasmodium falciparum (isolate 3D7)) (UniProt P61075)
Chain of Cyclin-dependent kinase 2 homolog (Plasmodium falciparum (isolate 3D7)) (P61075 whole entry): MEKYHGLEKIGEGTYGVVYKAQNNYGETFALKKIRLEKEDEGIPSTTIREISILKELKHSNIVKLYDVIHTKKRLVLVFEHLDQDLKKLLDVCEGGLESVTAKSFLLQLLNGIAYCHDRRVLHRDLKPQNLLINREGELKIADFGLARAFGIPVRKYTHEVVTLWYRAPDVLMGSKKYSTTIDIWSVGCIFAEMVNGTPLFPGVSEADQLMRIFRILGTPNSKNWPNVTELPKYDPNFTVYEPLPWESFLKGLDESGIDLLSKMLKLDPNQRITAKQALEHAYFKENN

[18] = molecular target: Sodium-dependent noradrenaline transporter (Homo sapiens) (UniProt P23975); details: Compound concentration 10.0 uM
[19] = molecular target: Fibroblast growth factor receptor 1 (Homo sapiens) (UniProt P11362)
[20] = molecular target: cGMP-dependent protein kinase 2 (Homo sapiens) (UniProt Q13237)
[21] = molecular target: Insulin receptor-related protein (Homo sapiens) (UniProt P14616)
[22] = molecular target: SNF-related serine/threonine-protein kinase (Homo sapiens) (UniProt Q9NRH2)
[23] = molecular target: Serine/threonine-protein kinase 32A (Homo sapiens) (UniProt Q8WU08)
Chain of Serine/threonine-protein kinase 32A (Homo sapiens) (Q8WU08 whole entry): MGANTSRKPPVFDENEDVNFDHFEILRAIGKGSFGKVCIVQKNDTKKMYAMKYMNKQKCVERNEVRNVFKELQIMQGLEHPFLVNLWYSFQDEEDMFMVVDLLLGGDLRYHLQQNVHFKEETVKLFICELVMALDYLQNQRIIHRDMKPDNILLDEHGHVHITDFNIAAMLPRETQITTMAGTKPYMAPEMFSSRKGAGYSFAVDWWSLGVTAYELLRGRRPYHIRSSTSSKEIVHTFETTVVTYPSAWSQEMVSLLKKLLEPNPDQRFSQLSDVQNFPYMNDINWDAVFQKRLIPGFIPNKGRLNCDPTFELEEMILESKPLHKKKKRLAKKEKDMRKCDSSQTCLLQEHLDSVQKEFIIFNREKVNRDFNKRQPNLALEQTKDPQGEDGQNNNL

[24] = molecular target: Transient receptor potential cation channel subfamily M member 6 (Homo sapiens) (UniProt Q9BX84)
[25] = molecular target: Tyrosine-protein kinase FRK (Homo sapiens) (UniProt P42685)
[26] = molecular target: Calcium/calmodulin-dependent protein kinase kinase 1 (Homo sapiens) (UniProt Q8N5S9)
Chain of Calcium/calmodulin-dependent protein kinase kinase 1 (Homo sapiens) (Q8N5S9 whole entry, looked up): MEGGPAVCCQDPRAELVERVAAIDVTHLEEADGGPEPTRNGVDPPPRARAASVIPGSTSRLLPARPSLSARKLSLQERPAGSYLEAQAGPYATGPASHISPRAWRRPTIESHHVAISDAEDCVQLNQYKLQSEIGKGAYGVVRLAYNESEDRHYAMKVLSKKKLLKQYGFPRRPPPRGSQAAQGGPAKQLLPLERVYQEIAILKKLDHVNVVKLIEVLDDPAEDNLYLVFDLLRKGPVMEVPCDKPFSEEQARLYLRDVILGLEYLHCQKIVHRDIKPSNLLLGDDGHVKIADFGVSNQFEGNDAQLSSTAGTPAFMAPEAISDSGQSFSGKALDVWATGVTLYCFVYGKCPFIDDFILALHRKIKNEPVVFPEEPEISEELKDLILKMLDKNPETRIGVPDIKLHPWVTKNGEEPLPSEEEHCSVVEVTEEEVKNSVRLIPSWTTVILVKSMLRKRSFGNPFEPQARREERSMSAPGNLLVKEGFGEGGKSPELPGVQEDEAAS

[27] = molecular target: Ribosomal protein S6 kinase alpha-6 (Homo sapiens) (UniProt Q9UK32)
[28] = molecular target: Tyrosine-protein kinase ABL2 (Homo sapiens) (UniProt P42684)
[29] = molecular target: Cyclin-dependent kinase 7 (Homo sapiens, UniProt P50613)
[30] = molecular target: Tyrosine-protein kinase receptor TYRO3 (Homo sapiens) (UniProt Q06418)
[31] = molecular target: Tyrosine-protein kinase Blk (Homo sapiens) (UniProt P51451)
[32] = molecular target: BMP-2-inducible protein kinase (Homo sapiens) (UniProt Q9NSY1)
[33] = molecular target: RAC-beta serine/threonine-protein kinase (Homo sapiens) (UniProt P31751)
[34] = molecular target: ALK tyrosine kinase receptor (Homo sapiens) (UniProt Q9UM73)
[35] = molecular target: MAP kinase-interacting serine/threonine-protein kinase 2 (Homo sapiens) (UniProt Q9HBH9)
Chain of MAP kinase-interacting serine/threonine-protein kinase 2 (Homo sapiens) (Q9HBH9 whole entry, looked up, canonical isoform): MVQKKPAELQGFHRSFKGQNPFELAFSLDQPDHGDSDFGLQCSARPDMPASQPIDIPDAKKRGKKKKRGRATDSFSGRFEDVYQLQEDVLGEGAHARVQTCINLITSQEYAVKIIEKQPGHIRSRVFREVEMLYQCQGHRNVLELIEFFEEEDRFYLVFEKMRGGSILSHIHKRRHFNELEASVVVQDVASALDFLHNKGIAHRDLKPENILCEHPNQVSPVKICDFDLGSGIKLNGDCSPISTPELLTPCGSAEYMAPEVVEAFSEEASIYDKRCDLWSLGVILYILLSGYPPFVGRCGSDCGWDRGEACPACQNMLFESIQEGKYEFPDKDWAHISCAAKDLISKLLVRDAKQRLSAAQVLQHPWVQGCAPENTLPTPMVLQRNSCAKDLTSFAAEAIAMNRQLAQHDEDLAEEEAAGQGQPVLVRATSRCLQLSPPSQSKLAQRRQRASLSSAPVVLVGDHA

[36] = tested on: Phosphatidylinositol 4,5-bisphosphate 3-kinase catalytic subunit alpha isoform (Homo sapiens), P42336 [Q546K]
Chain of Phosphatidylinositol 4,5-bisphosphate 3-kinase catalytic subunit alpha isoform (Homo sapiens), P42336 [Q546K] (P42336 whole entry Q546K, canonical isoform): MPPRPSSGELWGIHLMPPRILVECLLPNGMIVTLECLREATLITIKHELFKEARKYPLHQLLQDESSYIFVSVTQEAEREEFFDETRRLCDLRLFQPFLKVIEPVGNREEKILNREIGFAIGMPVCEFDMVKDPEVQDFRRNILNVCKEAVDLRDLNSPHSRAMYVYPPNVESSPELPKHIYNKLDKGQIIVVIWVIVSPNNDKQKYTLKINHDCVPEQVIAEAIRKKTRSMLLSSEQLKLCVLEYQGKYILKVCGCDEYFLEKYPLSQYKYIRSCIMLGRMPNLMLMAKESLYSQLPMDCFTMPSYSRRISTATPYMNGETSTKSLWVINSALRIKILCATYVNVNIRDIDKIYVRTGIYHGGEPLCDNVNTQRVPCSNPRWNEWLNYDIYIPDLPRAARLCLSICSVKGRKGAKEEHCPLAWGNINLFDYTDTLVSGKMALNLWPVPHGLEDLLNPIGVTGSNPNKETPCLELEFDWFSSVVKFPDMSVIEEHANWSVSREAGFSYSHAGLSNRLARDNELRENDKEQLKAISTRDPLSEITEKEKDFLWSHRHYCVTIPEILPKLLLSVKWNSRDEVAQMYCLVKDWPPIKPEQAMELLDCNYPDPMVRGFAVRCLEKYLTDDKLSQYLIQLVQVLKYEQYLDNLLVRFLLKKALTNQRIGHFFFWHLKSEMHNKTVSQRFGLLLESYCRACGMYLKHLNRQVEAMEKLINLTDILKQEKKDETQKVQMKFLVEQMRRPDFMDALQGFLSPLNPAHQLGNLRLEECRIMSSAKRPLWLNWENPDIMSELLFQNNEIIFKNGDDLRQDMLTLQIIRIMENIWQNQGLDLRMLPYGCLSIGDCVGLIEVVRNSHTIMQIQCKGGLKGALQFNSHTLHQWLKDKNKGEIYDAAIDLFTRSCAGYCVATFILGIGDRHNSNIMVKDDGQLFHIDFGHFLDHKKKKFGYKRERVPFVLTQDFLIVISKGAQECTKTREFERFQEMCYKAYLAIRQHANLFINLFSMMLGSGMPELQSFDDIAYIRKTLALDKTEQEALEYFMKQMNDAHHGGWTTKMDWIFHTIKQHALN

[37] = molecular target: Cyclin-dependent kinase-like 3 (Homo sapiens) (UniProt Q8IVW4)
Chain of Cyclin-dependent kinase-like 3 (Homo sapiens) (Q8IVW4 whole entry, looked up): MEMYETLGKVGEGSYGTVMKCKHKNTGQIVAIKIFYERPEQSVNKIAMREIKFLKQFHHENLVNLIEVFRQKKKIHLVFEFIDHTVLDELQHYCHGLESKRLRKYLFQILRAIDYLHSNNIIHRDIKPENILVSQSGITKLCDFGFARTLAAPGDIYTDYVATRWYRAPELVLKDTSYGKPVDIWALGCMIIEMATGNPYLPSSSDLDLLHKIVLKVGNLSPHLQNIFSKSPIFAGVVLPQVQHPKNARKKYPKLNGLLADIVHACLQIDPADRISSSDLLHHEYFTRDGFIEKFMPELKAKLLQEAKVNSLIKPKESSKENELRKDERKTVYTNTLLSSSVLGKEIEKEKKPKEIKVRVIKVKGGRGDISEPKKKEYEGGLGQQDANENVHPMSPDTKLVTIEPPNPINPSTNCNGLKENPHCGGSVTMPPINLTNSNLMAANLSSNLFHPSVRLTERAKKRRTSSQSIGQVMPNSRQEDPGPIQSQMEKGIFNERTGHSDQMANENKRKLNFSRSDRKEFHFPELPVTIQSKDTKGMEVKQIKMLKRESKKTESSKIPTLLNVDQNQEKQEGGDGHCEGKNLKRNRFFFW

[38] = molecular target: 5-hydroxytryptamine receptor 7 (Homo sapiens) (UniProt P34969); details: Compound concentration 10.0 uM
[39] = molecular target: Serine/threonine-protein kinase OSR1 (Homo sapiens) (UniProt O95747)
[40] = molecular target: 5-hydroxytryptamine receptor 2C (Homo sapiens) (UniProt P28335); details: Compound concentration 10.0 uM
[41] = tested on: Epidermal growth factor receptor (Homo sapiens), P00533 [L858R,T790M]
[42] = molecular target: Mitogen-activated protein kinase kinase kinase 2 (Homo sapiens) (UniProt Q9Y2U5)
[43] = molecular target: Death-associated protein kinase 2 (Homo sapiens) (UniProt Q9UIK4)
[44] = molecular target: Tyrosine-protein kinase BTK (Homo sapiens) (UniProt Q06187)
[45] = molecular target: Calcium/calmodulin-dependent protein kinase type II subunit beta (Homo sapiens) (UniProt Q13554)
[46] = Compound concentration 1000.0 nM
[47] = Compound concentration 100.0 nM

For `C[C@H](NC(=O)Nc1cc2[nH]ncc2c(CO)n1)c1ccccn1` [ERKi-NC], the residual activity [1, 46] was 85.4%, the residual activity [2, 46] was 100% and the residual activity [3, 46] was 100%. It also gave a residual activity [4, 46] of 42.4%, a residual activity [5, 46] of 100% and a residual activity [6, 46] of 96.3%. It also gave a residual activity [7, 46] of 71.4%, a residual activity [8, 46] of 100% and a residual activity [9, 46] of 100%. For the same molecule, the residual activity [10, 46] was 80.3%, the residual activity [11, 46] was 100% and the residual activity [12, 46] was 100%. It also gave a residual activity [13, 46] of 71.9%, a residual activity [14, 46] of 94.4% and a residual activity [15, 46] of 95.4%. For the same molecule, the residual activity [16, 46] was 100%, the residual activity [17, 46] was 91.1% and the inhibition [18] was 25.4%. For the same molecule, the residual activity [19, 46] was 78%, the residual activity [20, 46] was 100% and the residual activity [21, 46] was 100%. The residual activity [22, 46] was 100%, the residual activity [23, 46] was 100% and the residual activity [24, 46] was 92.7%. It also gave a residual activity [25, 46] of 100%, a residual activity [26, 46] of 100% and a residual activity [27, 46] of 82.7%. The residual activity [28, 46] was 100%, the residual activity [29, 46] was 100% and the residual activity [30, 46] was 59.2%. The residual activity [31, 46] was 100%, the residual activity [32, 46] was 100% and the residual activity [33, 46] was 100%. The residual activity [34, 46] was 85.4%, the residual activity [35, 46] was 82.6% and the residual activity [36, 46] was 100%. The residual activity [37, 46] was 100%, the inhibition [38] was 33.4% and the residual activity [39, 46] was 100%. The inhibition [40] was 13.6%, the residual activity [41, 46] was 100% and the residual activity [42, 46] was 98.4%. It also gave a residual activity [43, 46] of 100%, a residual activity [44, 46] of 92% and a residual activity [45, 46] of 100%.

`C[C@@H](NC(=O)Nc1cc2[nH]ncc2c(CO)n1)c1ccccc1` [ERKi] was tested, and the residual activity [1, 47] was 75.2%, the residual activity [2, 47] was 100% and the residual activity [3, 47] was 59.3%. For the same molecule, the residual activity [4, 47] was 77%, the residual activity [5, 47] was 81% and the residual activity [6, 47] was 89.6%. It also gave a residual activity [7, 47] of 80.9%, a residual activity [8, 47] of 100% and a residual activity [9, 47] of 100%. The residual activity [10, 47] was 85.2%, the residual activity [11, 47] was 91.6% and the residual activity [12, 47] was 73.5%. For the same molecule, the residual activity [13, 47] was 78.4%, the residual activity [14, 47] was 100% and the residual activity [15, 47] was 90.1%. It also gave a residual activity [16, 47] of 96.6%, a residual activity [17, 47] of 80.1% and an inhibition [18] of -9.99%. For the same molecule, the residual activity [19, 47] was 94.1%, the residual activity [20, 47] was 76.1% and the residual activity [21, 47] was 82.9%. It also gave a residual activity [22, 47] of 100%, a residual activity [23, 47] of 100% and a residual activity [24, 47] of 96.4%. The residual activity [25, 47] was 82.2%, the residual activity [26, 47] was 87.5% and the residual activity [27, 47] was 96.8%. The residual activity [28, 47] was 83.9%, the residual activity [29, 47] was 73.6% and the residual activity [30, 47] was 100%. The residual activity [31, 47] was 100%, the residual activity [32, 47] was 91.9% and the residual activity [33, 47] was 100%. For the same molecule, the residual activity [34, 47] was 89.9%, the residual activity [35, 47] was 90.6% and the residual activity [36, 47] was 100%. It also gave a residual activity [37, 47] of 95.6%, an inhibition [38] of 21.8% and a residual activity [39, 47] of 69.8%. For the same molecule, the inhibition [40] was 26.3%, the residual activity [41, 47] was 100% and the residual activity [42, 47] was 87.3%. The residual activity [43, 47] was 66.3%, the residual activity [44, 47] was 100% and the residual activity [45, 47] was 75.2%.
